By EC50 is commonly meant the concentration that produces a half-maximal response. Low values mean an effect from little substance, high ones a need for much substance. By IC50 is commonly meant the concentration at which inhibition is half-maximal.

These results are taken from patent US8044087B2, “Hepatitis C virus inhibitors” (priority 2008, dated 2011).

Assay [1] has as its system HCV replicon in HUH-7 cells. Kind of assay: HCV replicon FRET assay (confirmed in replicon luciferase reporter assay). The assay is classed as cell-based. The settings on record: Hepatitis C virus, 96 h, HUH-7 cells expressing HCV 1b replicon, 4 days. From the text:
An HCV replicon whole cell system was established as described by Lohmann V, Korner F, Koch J, Herian U, Theilmann L, Bartenschlager R., Science 285(5424):110-3 (1999). This system enabled us to evaluate the effects of our HCV Protease compounds on HCV RNA replication. Briefly, using the HCV strain 1b sequence described in the Lohmann paper (Assession number: AJ238799), an HCV cDNA was synthesized by Operon Technologies, Inc. (Alameda, Calif.), and the full-length replicon was then assembled in plasmid pGem9zf(+) (Promega, Madison, Wis.) using standard molecular biology techniques. The replicon consists of (i) the HCV 5′ UTR fused to the first 12 amino acids of the capsid protein, (ii) the neomycin phosphotransferase gene (neo), (iii) the IRES from encephalomyocarditis virus (EMCV), and (iv) HCV NS3 to NS5B genes and the HCV 3′ UTR. Plasmid DNAs were linearized with ScaI and RNA transcripts were synthesized in vitro using the T7 MegaScript transcription kit (Ambion, Austin, Tex.) according to manufacturer's directions. In vitro transcripts of the cDNA were transfected into the human hepatoma cell line, HUH-7. […] Resulting cell lines were characterized for positive and negative strand RNA production and protein production over time.
The HCV replicon FRET assay was developed to monitor the inhibitory effects of compounds described in the disclosure on HCV viral replication. HUH-7 cells, constitutively expressing the HCV replicon, were grown in Dulbecco's Modified Eagle Media (DMEM) (Gibco-BRL) containing 10% Fetal calf serum (FCS) (Sigma) and 1 mg/ml G418 (Gibco-BRL). Cells were seeded the night before (1.5×10^4 cells/well) in 96-well tissue-culture sterile plates. Compound and no compound controls were prepared in DMEM containing 4% FCS, 1:100 Penicillin/Streptomysin (Gibco-BRL), 1:100 L-glutamine and 5% DMSO in the dilution plate (0.5% DMSO final concentration in the assay). Compound/DMSO mixes were added to the cells and incubated for 4 days at 37° C. After 4 days, cells were first assessed for cytotoxicity using alamar Blue (Trek Diagnotstic Systems) for a CC50 reading. The toxicity of compound (CC50) was determined by adding 1/10 volume of alamar Blue to the media incubating the cells. After 4 h, the fluorescence signal from each well was read, with an excitation wavelength at 530 nm and an emission wavelength of 580 nm, using the Cytofluor Series 4000 (Perspective Biosystems). Plates were then rinsed thoroughly with Phosphate-Buffered Saline (PBS) (3 times 150 μl).
As a secondary assay, EC50 determinations from the replicon FRET assay were confirmed in a replicon luciferase reporter assay. […] Following 4 days in a 37° C./5% CO2 incubator, cells were analyzed for Renilla Luciferase activity using the Promega Dual-Glo Luciferase Assay System. […]
Background: Replicon systems follow genome replication, usually without infectious particles.

Assay [2] concerns the target T1, HCV NS3/4A protease complex (Hepatitis C virus genotype 1a, UniProt P27958, C1454S/C1711G).
T1 construct: DNA encoding the recombinant HCV NS3/4A protease complex (amino acids 1027 to 1711) for these strains; inferred from the pET21b vector and Ni-NTA purification; made in house; host or cells: Escherichia coli BL21 (DE3)
Nature of the assay: FRET peptide assay to monitor HCV NS3/4A proteolytic activity. In kind it is biochemical. The following applies: recombinant NS3/4A protease complex, strain not stated. From the text: HCV NS3 protease complexes, derived from the BMS strain, H77 strain or J4L6S strain, were generated, as described below. These purified recombinant proteins were generated for use in a homogeneous assay (see below) to provide an indication of how effective compounds of the present disclosure would be in inhibiting HCV NS3 proteolytic activity.
Serum from an HCV-infected patient was obtained from Dr. T. Wright, San Francisco Hospital. An engineered full-length cDNA (compliment deoxyribonucleic acid) template of the HCV genome (BMS strain) was constructed from DNA fragments obtained by reverse transcription-PCR (RT-PCR) of serum RNA (ribonucleic acid) and using primers selected on the basis of homology between other genotype 1a strains. From the determination of the entire genome sequence, a genotype 1a was assigned to the HCV isolate according to the classification of Simmonds et al. (See P Simmonds, K A Rose, S Graham, S W Chan, F McOmish, B C Dow, E A Follett, P L Yap and H Marsden, J. Clin. Microbiol., 31(6), 1493-1503 (1993)). […] The infectious clones, H77 (1a genotype) and J4L6S (1b genotype) were obtained from R. Purcell (NIH) and the sequences are published in Genbank (AAB67036, see Yanagi, M., Purcell, R. H., Emerson, S. U. and Bukh, J. Proc. Natl. Acad. Sci. U.S.A. 94(16), 8738-8743 (1997); AF054247, see Yanagi, M., St Claire, M., Shapiro, M., Emerson, S. U., Purcell, R. H. and Bukh, J., Virology 244 (1), 161-172. (1998)).
The H77 and J4L6S strains were used for production of recombinant NS3/4A protease complexes. DNA encoding the recombinant HCV NS3/4A protease complex (amino acids 1027 to 1711) for these strains was manipulated as described by P. Gallinari et al. (see Gallinari P, Paolini C, Brennan D, Nardi C, Steinkuhler C, De Francesco R. Biochemistry. 38(17):5620-32, (1999)). Briefly, a three-lysine solubilizing tail was added at the 3′-end of the NS4A coding region. The cysteine in the P1 position of the NS4A-NS4B cleavage site (amino acid 1711) was changed to a glycine to avoid the proteolytic cleavage of the lysine tag. Furthermore, a cysteine to serine mutation was introduced by PCR at amino acid position 1454 to prevent the autolytic cleavage in the NS3 helicase domain. The variant DNA fragment was cloned in the pET21b bacterial expression vector (Novagen) and the NS3/4A complex was expressed in Escherichia coli strain BL21 (DE3) (Invitrogen) following the protocol described by P. Gallinari et al. (see Gallinari P, Brennan D, Nardi C, Brunetti M, Tomei L, Steinkuhler C, De Francesco R., J Viral. 72(8):6758-69 (1998)) with modifications. Briefly, the NS3/4A protease complex expression was induced with 0.5 millimolar (mM) Isopropyl β-D-1-thiogalactopyranoside (IPTG) for 22 hours (h) at 20° C. […]

For a further assay, the system named is HCV. The following applies: combination therapy; cited from earlier work.

T1 sequence (P27958 1027-1711 C1454S/C1711G, one chain of several): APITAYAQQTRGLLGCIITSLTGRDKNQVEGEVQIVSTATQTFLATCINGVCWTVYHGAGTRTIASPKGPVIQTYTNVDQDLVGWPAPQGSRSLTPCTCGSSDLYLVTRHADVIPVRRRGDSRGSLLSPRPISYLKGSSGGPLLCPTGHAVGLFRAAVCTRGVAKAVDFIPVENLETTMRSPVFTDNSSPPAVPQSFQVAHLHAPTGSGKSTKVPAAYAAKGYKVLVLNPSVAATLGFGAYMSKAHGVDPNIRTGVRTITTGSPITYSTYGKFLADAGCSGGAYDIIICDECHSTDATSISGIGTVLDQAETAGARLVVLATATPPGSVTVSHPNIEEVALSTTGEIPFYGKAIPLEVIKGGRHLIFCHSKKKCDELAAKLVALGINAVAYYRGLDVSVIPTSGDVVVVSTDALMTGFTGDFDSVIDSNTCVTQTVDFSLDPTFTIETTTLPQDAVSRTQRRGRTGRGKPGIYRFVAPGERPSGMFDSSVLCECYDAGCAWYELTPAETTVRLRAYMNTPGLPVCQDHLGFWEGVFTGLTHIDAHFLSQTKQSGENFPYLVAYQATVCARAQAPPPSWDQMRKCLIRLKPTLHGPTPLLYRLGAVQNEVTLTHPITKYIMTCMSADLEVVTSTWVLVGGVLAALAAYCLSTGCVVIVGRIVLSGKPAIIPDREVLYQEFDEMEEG

For the compound `C=C[C@@H]1C[C@]1(NC(=O)[C@@H]1C[C@@]2(c3ccc(-c4ccccc4)cc3)CN1C(=O)[C@@H](NC(=O)OC(C)(C)C)CCCCCCCCCS2)C(=O)NS(=O)(=O)C1CC1` [Example 3, tert-butyl (3S,14R,16S)-14-(biphenyl-4-yl)-16-((1R,2S)-1-(cyclopropylsulfonylcarbamoyl)-2-vinylcyclopropylcarbamoyl)-2-oxo-13-thia-1-azabicyclo[12.2.1]heptadecan-3-ylcarbamate], the EC50 in assay [1] (class symbols) fell in the range of 501 to 1000 nM. In addition, in assay [2] (class symbols), the IC50 lay in the range of 5 to 30 nM.

For `C=C[C@@H]1C[C@]1(NC(=O)[C@@H]1C[C@@]2(c3ccc(-c4ccccc4)cc3)CN1C(=O)[C@@H](NC(=O)OC(C)(C)C)CCCC/C=C/CS2)C(=O)NS(=O)(=O)C1CC1` [Example 4, tert-butyl (3S,12R,14S,E)-12-(biphenyl-4-yl)-14-((1R,2S)-1-(cyclopropylsulfonylcarbamoyl)-2-vinylcyclopropylcarbamoyl)-2-oxo-11-thia-1-azabicyclo[10.2.1]pentadec-8-en-3-ylcarbamate], in assay [1] (class symbols), the EC50 fell in the range of 501 to 1000 nM. In assay [2] (class symbols), the IC50 was 31 to 100 nM.

As to `C=C[C@@H]1C[C@]1(NC(=O)[C@@H]1C[C@@]2(c3ccc(-c4ccccc4)cc3)CN1C(=O)[C@@H](NC(=O)OC(C)(C)C)CCCCCC/C=C/CS2)C(=O)NS(=O)(=O)C1CC1` [Example 2, tert-butyl (3S,14R,16S,E)-14-(biphenyl-4-yl)-16-((1R,2S)-1-(cyclopropylsulfonylcarbamoyl)-2-vinylcyclopropylcarbamoyl)-2-oxo-13-thia-1-azabicyclo[12.2.1]heptadec-10-en-3-ylcarbamate], in assay [1] (class symbols), the EC50 is 501 to 1000 nM. The IC50 in assay [2] (class symbols) is 5 to 30 nM.

Turning to alpha-interferon and ribavirin, the “sustained efficacy, share of patients” value in the assay on HCV was 40%.

In assay [1], `C=C[C@@H]1C[C@]1(NC(=O)[C@@H]1C[C@@]2(c3ccc(-c4ccccc4)cc3)CN1C(=O)[C@@H](NC(=O)OC(C)(C)C)CCCCC/C=C/CS2)C(=O)NS(=O)(=O)C1CC1` [Example 1, tert-butyl (3S,13R,15S,E)-13-(biphenyl-4-yl)-15-((1R,2S)-1-(cyclopropylsulfonylcarbamoyl)-2-vinylcyclopropylcarbamoyl)-2-oxo-12-thia-1-azabicyclo[11.2.1]hexadec-9-en-3-ylcarbamate] returned an EC50 of 75 nM. In addition, the IC50 in assay [2] came to 5 nM.
